The source of these data is ChEMBL document CHEMBL4270566, “New aziridine-based inhibitors of cathepsin L-like cysteine proteases with selectivity for the Leishmania cysteine protease LmCPB2.8” (Eur J Med Chem, 2018).

The target in one experiment is Cruzipain (Trypanosoma cruzi, UniProt P25779). Kind of experiment: Inhibition of Trypanosoma cruzi cruzain using Z-Phe-Arg-AMC as substrate by fluorometric assay.
Experiment [1] is described as follows: Inhibition of Leishmania mexicana cathepsin L-like protease CPB2.8 using Z-Phe-Arg-AMC as substrate by fluorometric assay.
For experiment [2], the system named is Leishmania major. Kind of experiment: Antileishmanial activity against Leishmania major promastigotes. The format is functional, organism-based.
The next experiment concerns the target T1, Falcipain 2 (Plasmodium falciparum, UniProt Q9N6S8).
T1 sequence (Q9N6S8 whole entry): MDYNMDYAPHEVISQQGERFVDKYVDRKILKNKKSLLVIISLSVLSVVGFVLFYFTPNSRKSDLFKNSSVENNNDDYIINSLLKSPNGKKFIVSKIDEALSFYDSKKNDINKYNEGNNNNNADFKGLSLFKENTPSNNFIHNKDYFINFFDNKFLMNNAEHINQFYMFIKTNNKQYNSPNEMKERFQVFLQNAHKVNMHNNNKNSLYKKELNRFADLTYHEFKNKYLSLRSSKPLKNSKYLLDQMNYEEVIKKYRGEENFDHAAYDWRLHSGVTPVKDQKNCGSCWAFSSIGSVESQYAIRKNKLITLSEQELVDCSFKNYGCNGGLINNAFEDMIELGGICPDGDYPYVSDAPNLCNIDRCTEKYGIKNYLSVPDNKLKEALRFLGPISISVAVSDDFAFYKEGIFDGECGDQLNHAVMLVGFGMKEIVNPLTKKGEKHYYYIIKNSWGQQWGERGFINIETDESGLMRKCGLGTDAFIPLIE
Nature of the experiment: Inhibition of Plasmodium falciparum falcipain 2 using Z-Phe-Arg-AMC as substrate by fluorometric assay.

Experiment [3] deals with T2, Procathepsin L (Homo sapiens, UniProt P07711). Nature of the experiment: Inhibition of human cathepsin-L using Z-Phe-Arg-AMC as substrate by fluorometric assay.
Target sequence in this assay (P07711 whole entry): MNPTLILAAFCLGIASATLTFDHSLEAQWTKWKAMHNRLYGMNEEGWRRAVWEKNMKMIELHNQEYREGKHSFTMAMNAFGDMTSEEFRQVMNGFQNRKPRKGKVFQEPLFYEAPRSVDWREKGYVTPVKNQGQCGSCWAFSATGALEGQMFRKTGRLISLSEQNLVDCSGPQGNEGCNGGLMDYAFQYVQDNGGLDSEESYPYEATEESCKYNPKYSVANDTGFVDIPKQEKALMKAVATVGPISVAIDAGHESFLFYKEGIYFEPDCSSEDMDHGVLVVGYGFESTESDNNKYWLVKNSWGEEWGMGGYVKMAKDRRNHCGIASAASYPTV
The target in another experiment is Cathepsin B (Homo sapiens, UniProt P07858). Nature of the experiment: Inhibition of human cathepsin-B at 20 uM using Z-Phe-Arg-AMC as substrate by fluorometric assay relative to control.
Experiment [4] relates to Leishmania major. Kind of experiment: Antileishmanial activity against luciferase-fused Leishmania major amastigotes infected in BMDM after 24 hrs by luminescence assay. The format is functional, organism-based.
The next experiment addresses Rhodesain (Trypanosoma brucei rhodesiense, UniProt Q95PM0). Kind of experiment: Inhibition of Trypanosoma brucei rhodesiense rhodesain using Z-Phe-Arg-AMC as substrate by fluorometric assay.
The target in experiment [5] is T3, Falcipain 2 (Plasmodium falciparum) (UniProt Q9N6S8).
T3 sequence (whole entry): T1 sequence (Q9N6S8 whole entry)
Kind of experiment: Inhibition of Plasmodium falciparum falcipain 2 at 20 uM using Z-Phe-Arg-AMC as substrate by fluorometric assay relative to control.

The target of experiment [6] is T2, Procathepsin L. Nature of the experiment: Inhibition of human cathepsin-L at 20 uM using Z-Phe-Arg-AMC as substrate by fluorometric assay relative to control.
Target sequence in this assay (P07711 114-333 limits assumed): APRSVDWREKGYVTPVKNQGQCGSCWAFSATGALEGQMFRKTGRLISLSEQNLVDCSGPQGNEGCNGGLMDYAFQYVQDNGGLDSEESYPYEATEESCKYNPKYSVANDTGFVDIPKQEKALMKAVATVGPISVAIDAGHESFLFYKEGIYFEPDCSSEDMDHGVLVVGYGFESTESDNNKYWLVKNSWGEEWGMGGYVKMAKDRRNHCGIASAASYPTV
Experiment [7] has as its system Leishmania major. Nature of the experiment: Antileishmanial activity against Leishmania major promastigotes at 20 uM. The format is functional, organism-based.
Experiment [8] has as its target Cruzipain (Trypanosoma cruzi) (UniProt P25779). Nature of the experiment: Inhibition of Trypanosoma cruzi cruzain at 20 uM using Z-Phe-Arg-AMC as substrate by fluorometric assay relative to control.
Experiment [9] addresses Rhodesain (Trypanosoma brucei rhodesiense) (UniProt Q95PM0). Kind of experiment: Inhibition of Trypanosoma brucei rhodesiense rhodesain at 20 uM using Z-Phe-Arg-AMC as substrate by fluorometric assay relative to control.
In another experiment the test system is Leishmania mexicana. Nature of the experiment: Inhibition of Leishmania mexicana cathepsin L-like protease CPB2.8 at 20 uM using Z-Phe-Arg-AMC as substrate by fluorometric assay relative to control.

Calls of active or inactive are those of the source. No cut-off for these calls is given here.

Sequence of Rhodesain (Trypanosoma brucei rhodesiense) (Q95PM0 1-450): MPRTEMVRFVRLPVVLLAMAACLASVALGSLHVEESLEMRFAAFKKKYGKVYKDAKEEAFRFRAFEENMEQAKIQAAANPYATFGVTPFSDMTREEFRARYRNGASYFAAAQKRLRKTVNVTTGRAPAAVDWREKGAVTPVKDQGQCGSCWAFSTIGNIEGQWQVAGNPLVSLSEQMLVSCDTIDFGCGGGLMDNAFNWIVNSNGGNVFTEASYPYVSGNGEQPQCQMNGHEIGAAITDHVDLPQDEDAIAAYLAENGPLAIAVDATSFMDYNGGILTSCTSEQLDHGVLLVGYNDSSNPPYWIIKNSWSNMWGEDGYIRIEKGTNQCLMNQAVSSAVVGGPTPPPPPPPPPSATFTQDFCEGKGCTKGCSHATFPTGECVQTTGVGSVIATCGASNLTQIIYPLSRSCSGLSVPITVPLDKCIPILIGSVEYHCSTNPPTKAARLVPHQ
Sequence of Cruzipain (Trypanosoma cruzi) (P25779 123-467 limits assumed): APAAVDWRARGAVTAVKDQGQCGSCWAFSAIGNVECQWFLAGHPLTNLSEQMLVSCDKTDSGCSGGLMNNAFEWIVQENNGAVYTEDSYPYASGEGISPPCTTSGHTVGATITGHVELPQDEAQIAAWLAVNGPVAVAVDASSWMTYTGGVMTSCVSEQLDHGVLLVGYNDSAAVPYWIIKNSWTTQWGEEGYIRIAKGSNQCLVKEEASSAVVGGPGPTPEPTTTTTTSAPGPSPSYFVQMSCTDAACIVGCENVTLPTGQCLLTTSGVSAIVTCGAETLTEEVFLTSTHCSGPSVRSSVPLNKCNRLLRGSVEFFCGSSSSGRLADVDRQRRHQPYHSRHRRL
Sequence of Cruzipain (P25779 whole entry): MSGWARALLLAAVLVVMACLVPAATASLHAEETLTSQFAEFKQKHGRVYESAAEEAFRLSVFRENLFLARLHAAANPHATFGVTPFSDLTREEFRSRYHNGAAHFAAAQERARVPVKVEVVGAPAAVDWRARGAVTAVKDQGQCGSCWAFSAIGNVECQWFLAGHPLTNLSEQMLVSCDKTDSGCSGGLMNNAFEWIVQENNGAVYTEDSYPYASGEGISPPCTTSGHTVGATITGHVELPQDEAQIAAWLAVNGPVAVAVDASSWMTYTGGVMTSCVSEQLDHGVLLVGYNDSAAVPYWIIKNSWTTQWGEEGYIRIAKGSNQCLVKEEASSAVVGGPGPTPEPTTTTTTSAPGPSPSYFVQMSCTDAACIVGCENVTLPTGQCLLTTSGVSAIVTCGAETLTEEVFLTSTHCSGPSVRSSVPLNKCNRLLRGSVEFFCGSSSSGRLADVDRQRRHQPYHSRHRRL
Sequence of Rhodesain (Q95PM0 whole entry): as the sequence (Q95PM0 1-450) above

Turning to `CC(C)C[C@H](NC(=O)OC(C)(C)C)C(=O)N1CCC[C@@H]1C(=O)N1[C@H](C(=O)OCc2ccccc2)[C@H]1C(=O)OCc1ccccc1`, the Ki on Cruzipain was 0.9 µM; in experiment [1], 1.7 µM; at Falcipain 2, 43.9 µM; at Procathepsin L [3] it was 6 µM. Besides, the concentration giving a half-maximal response (EC50) is 39.6 µM in the experiment with Leishmania major [2] and 2.2 µM in the experiment with Leishmania major [4]. Besides, the inhibition result at Cathepsin B is “inactive”.
In the case of `CC(C)C[C@@H](NC(=O)OC(C)(C)C)C(=O)N1CCC[C@H]1C(=O)N1[C@H](C(=O)OCc2ccccc2)[C@H]1C(=O)OCc1ccccc1`, the Ki was determined as 0.79 µM at Cruzipain, 2.1 µM in experiment [1], 28.3 µM on Falcipain 2 and 4 µM on Procathepsin L [3]. Moreover, the results for the EC50 in the experiment with Leishmania major [2] and in the experiment on Leishmania major [4] were 35.4 µM and 2.7 µM, respectively. Further, the inhibition result at Cathepsin B is “inactive”.
On to `CC(C)C[C@@H](NC(=O)OC(C)(C)C)C(=O)N1CCC[C@H]1C(=O)N1[C@@H](C(=O)OCc2ccccc2)[C@@H]1C(=O)OCc1ccccc1`, for which the Ki came to 15.2 µM at Rhodesain, 30.9 µM at Cruzipain and 3.4 µM in experiment [1]. The inhibition entry (in experiment [5]; at Cathepsin B; at Procathepsin L [6]) was “inactive” in each case. In the experiment on Leishmania major [2], the EC50 was 95 µM.
In the case of `CC(C)C[C@@H](NC(=O)OC(C)(C)C)C(=O)N1CCC[C@@H]1C(=O)N1[C@H](C(=O)OCc2ccccc2)[C@H]1C(=O)OCc1ccccc1`, the inhibition result (in experiment [5]; at Cathepsin B; on Procathepsin L [6]) was “inactive” throughout. For the same compound, in the experiment with Leishmania major [7], the result was inactive.
For the compound `CC(C)C[C@H](NC(=O)OC(C)(C)C)C(=O)N1CCC[C@H]1C(=O)N1[C@H](C(=O)OCc2ccccc2)[C@H]1C(=O)OCc1ccccc1`, the inhibition result (in experiment [5]; on Cathepsin B; at Procathepsin L [6]) was “inactive” throughout. The result with Leishmania major [7] was inactive.
As to `CC(C)C[C@H](NC(=O)OC(C)(C)C)C(=O)N1CCC[C@@H]1C(=O)N1C(C(=O)OCC2CCCCC2)C1C(=O)OCC1CCCCC1` (mixture of isomers), the inhibition was < 50% in [5]; < 50% in experiment [8]; < 50% in experiment [9]; > 50% in the experiment with Leishmania mexicana; < 50% at Procathepsin L [6]. Besides, the affinity in [1] corresponds to a Ki of 0.77 µM. At Cathepsin B, the inhibition result was “inactive”.
Regarding `CC(C)C[C@H](NC(=O)OC(C)(C)C)C(=O)N1CCC[C@@H]1C(=O)N1C(C(=O)OCCCc2ccccc2)C1C(=O)OCCCc1ccccc1` (mixture of isomers), the inhibition in [5] is < 50%; in [8], < 50%; in experiment [9] it was < 50%; in the experiment with Leishmania mexicana it was > 50%; on Procathepsin L [6], < 50%. Also, the Ki in experiment [1] came to 0.9 µM. Also, the inhibition entry on Cathepsin B was “inactive”.
Regarding `CC(C)C[C@H](NC(=O)OC(C)(C)C)C(=O)N1CCC[C@@H]1C(=O)N1C(C(=O)OCc2ccccc2)C1C(=O)OCc1ccc2ccccc2c1` (mixture of isomers), the inhibition is < 50% in [5]; < 50% in experiment [8]; < 50% in experiment [9]; > 50% in the experiment on Leishmania mexicana; < 50% on Procathepsin L [6]. In addition, in experiment [1], the Ki was found to be 0.8 µM. For the same compound, the inhibition result at Cathepsin B is “inactive”.
As for `CC(C)C[C@H](NC(=O)OC(C)(C)C)C(=O)N1CCC[C@@H]1C(=O)N1C(C(=O)OCc2ccccc2)C1C(=O)OCC1CCCCC1` (mixture of isomers), the inhibition is < 50% in experiment [5]; > 50% in [8]; < 50% in experiment [9]; > 50% in the experiment on Leishmania mexicana; < 50% on Procathepsin L [6]. Besides, the inhibition constant (Ki) came to 7.6 µM on Cruzipain and 1.8 µM in experiment [1]. Moreover, at Cathepsin B, the inhibition result was “inactive”.
`CC(C)C[C@H](NC(=O)OC(C)(C)C)C(=O)N1CCC[C@@H]1C(=O)N1C(C(=O)OCCCc2ccccc2)C1C(=O)OCc1ccccc1` (mixture of isomers): the inhibition in experiment [5] is < 50%; in experiment [8], < 50%; in experiment [9] it was < 50%; in the experiment with Leishmania mexicana it was > 50%; against Procathepsin L [6], < 50%. This compound displayed a Ki in experiment [1] of 1.36 µM. For the same compound, on Cathepsin B, the inhibition entry is “inactive”.
Take `CC(C)C[C@H](NC(=O)OC(C)(C)C)C(=O)N1CCC[C@@H]1C(=O)N1C(C(=O)OCCc2ccccc2)C1C(=O)OCCc1ccccc1` (mixture of isomers): the inhibition in experiment [5] is < 50%; in experiment [8] it was > 50%; in experiment [9], < 50%; in the experiment with Leishmania mexicana, > 50%; against Procathepsin L [6], < 50%. Besides, the inhibition constant Ki at Cruzipain amounted to 7.7 µM; in experiment [1] it was 1.6 µM. Besides, on Cathepsin B, the inhibition result is “inactive”.
For `CC(C)C[C@H](NC(=O)OC(C)(C)C)C(=O)N1CCC[C@@H]1C(=O)N1C(C(=O)OCc2ccccc2)C1C(=O)OCc1ccccc1` (mixture of isomers), the Ki at Rhodesain came out at 1.5 µM; on Cruzipain it was 1.8 µM; in [1], 2.8 µM; at Procathepsin L [3], 12 µM. The inhibition (in experiment [5]; in experiment [8]; in [9]; in the experiment with Leishmania mexicana; against Procathepsin L [6]) was > 50% in each case. Further, the inhibition entry at Cathepsin B was “inactive”.
On to `CC(C)C[C@H](NC(=O)OC(C)(C)C)C(=O)N1CCC[C@@H]1C(=O)N1C(C(=O)OCCc2ccccc2)C1C(=O)OCc1ccccc1` (mixture of isomers), for which the inhibition in [5] was < 50%; in experiment [8], > 50%; in [9] it was < 50%; with Leishmania mexicana, > 50%; against Procathepsin L [6], < 50%. For the same compound, the figures for the Ki (at Cruzipain; in [1]) were 5.5 µM and 1.92 µM, respectively. Further, the inhibition result on Cathepsin B is “inactive”.
Consider `CC(C)C[C@H](NC(=O)OC(C)(C)C)C(=O)N1CCC[C@@H]1C(=O)N1C(C(=O)O)C1C(=O)OC(C)(C)C` (mixture of isomers), for which the inhibition (in [5]; in [8]; in experiment [9]; in the experiment with Leishmania mexicana; against Procathepsin L [6]) was < 50% throughout. In addition, the inhibition entry on Cathepsin B is “inactive”.
For the compound `CC(C)C[C@H](NC(=O)OC(C)(C)C)C(=O)N1CCC[C@@H]1C(=O)N1C(C(=O)OCc2ccccc2)C1C(=O)OC(C)(C)C` (mixture of isomers), the inhibition (in experiment [5]; in experiment [8]; in [9]; with Leishmania mexicana; against Procathepsin L [6]) was < 50% in each case. On Cathepsin B, the inhibition entry was “inactive”.
On to `CCOC(=O)C1C(C(=O)O)N1C(=O)[C@H]1CCCN1C(=O)[C@H](CC(C)C)NC(=O)OC(C)(C)C` (mixture of isomers), for which the inhibition (in [5]; in [8]; in experiment [9]; in the experiment with Leishmania mexicana; on Procathepsin L [6]) was < 50% throughout. For the same compound, the inhibition result at Cathepsin B is “inactive”.
As to `CCOC(=O)C1C(C(=O)OCc2ccccc2)N1C(=O)[C@H]1CCCN1C(=O)[C@H](CC(C)C)NC(=O)OC(C)(C)C` (mixture of isomers), the inhibition (in experiment [5]; in experiment [8]; in [9]; in the experiment on Leishmania mexicana; against Procathepsin L [6]) was < 50% each time. For the same compound, the inhibition entry on Cathepsin B is “inactive”.
